Which flash point does the source give for CCCCCCCCCCCCCCCCCC(=O)OCCO [2-hydroxyethyl octadecanoate] here?
Its flash point is 260.00 °C.

Which flash point does the source give for O=C(O)CC(O)(CC(=O)O)C(=O)O [2-hydroxypropane-1,2,3-tricarboxylic acid] here?
Its flash point is 100.00 °C.

For CC(O)C#N (stereo not drawn) [2-hydroxypropanenitrile], which flash point is on record?
Its flash point is 77.00 °C.

Which flash point does the source give for CC(O)C(=O)O (stereo not drawn) [2-hydroxypropanoic acid] here?
The flash point was 113.00 °C.

Which flash point does the source give for C/C=C/c1ccc(O)c(OC)c1 [2-methoxy-4-[(E)-prop-1-enyl]phenol] here?
The flash point was 113.00 °C.

For COCCOC(C)=O [2-methoxyethyl acetate], which flash point is on record?
Its flash point is 44.00 °C.

Which flash point does the source give for COc1ccccc1O [2-methoxyphenol] here?
Its flash point is 74.00 °C.

Which flash point does the source give for COC(C)COC(C)=O (stereo not drawn) [2-methoxypropyl acetate] here?
The flash point was 25.00 °C.

With CC(C)CNCC(C)C [2-methyl-N-(2-methylpropyl)propan-1-amine] as the molecule, how does the flash point read?
Its flash point is 29.00 °C.

With Cc1ccccc1N [2-methylaniline] as the molecule, how does the flash point read?
Its flash point is 85.00 °C.

For Cc1ccccc1C#N [2-methylbenzonitrile], which flash point is on record?
Its flash point is 84.00 °C.

Which flash point does the source give for C=CC(C)(C)O [2-methylbut-3-en-2-ol] here?
The flash point was 13.00 °C.

With C=CC(=C)C [2-methylbuta-1,3-diene] as the molecule, how does the flash point read?
The flash point was -54.00 °C.

With CCC(C)CO (stereo not drawn) [2-methylbutan-1-ol] as the molecule, how does the flash point read?
The flash point was 50.00 °C.

For CCC(C)(C)OC(C)=O [2-methylbutan-2-yl acetate], which flash point is on record?
Its flash point is 26.00 °C.

For CC1CCCCC1=O (stereo not drawn) [2-methylcyclohexan-1-one], which flash point is on record?
The flash point was 48.00 °C.

Which flash point does the source give for Cc1ccco1 [2-methylfuran] here?
Its flash point is -30.00 °C.

For CC1CO1 (stereo not drawn) [2-methyloxirane], which flash point is on record?
The flash point was -37.00 °C.

With C=C(C)CCC [2-methylpent-1-ene] as the molecule, how does the flash point read?
The flash point was -26.00 °C.

Which flash point does the source give for CCCC(C)CO (stereo not drawn) [2-methylpentan-1-ol] here?
Its flash point is 54.00 °C.

With CCCC(C)C=O (stereo not drawn) [2-methylpentanal] as the molecule, how does the flash point read?
The flash point was 20.00 °C.

Which flash point does the source give for CC(O)CC(C)(C)O (stereo not drawn) [2-methylpentane-2,4-diol] here?
The flash point was 93.00 °C.

Which flash point does the source give for C=C(C)C [2-methylprop-1-ene] here?
Its flash point is -76.00 °C.

With C=C(C)C=O [2-methylprop-2-enal] as the molecule, how does the flash point read?
Its flash point is 2.00 °C.

For C=C(C)C(=O)O [2-methylprop-2-enoic acid], which flash point is on record?
Its flash point is 77.00 °C.

With CC(C)CN [2-methylpropan-1-amine] as the molecule, how does the flash point read?
Its flash point is -9.00 °C.

For CC(C)(C)O [2-methylpropan-2-ol], which flash point is on record?
The flash point was 11.00 °C.

With CC(C)C [2-methylpropane] as the molecule, how does the flash point read?
The flash point was -83.00 °C.

Which flash point does the source give for CC(C)C#N [2-methylpropanenitrile] here?
Its flash point is 8.00 °C.

For CC(C)C(=O)OC(=O)C(C)C [2-methylpropanoyl 2-methylpropanoate], which flash point is on record?
The flash point was 59.00 °C.

Which flash point does the source give for CC(C)COC(=O)C(C)C [2-methylpropyl 2-methylpropanoate] here?
Its flash point is 37.00 °C.

Which flash point does the source give for CC(=O)OCC(C)C [2-methylpropyl acetate] here?
The flash point was 17.00 °C.

Which flash point does the source give for C=CC(=O)OCC(C)C [2-methylpropyl prop-2-enoate] here?
Its flash point is 30.00 °C.

For Cc1ccccn1 [2-methylpyridine], which flash point is on record?
The flash point was 36.00 °C.

For Cc1ccc2ccccc2n1 [2-methylquinoline], which flash point is on record?
The flash point was 79.00 °C.

For Nc1ccccc1[N+](=O)[O-] [2-nitroaniline], which flash point is on record?
The flash point was 168.00 °C.

Which flash point does the source give for CCCCCCCCC1CO1 (stereo not drawn) [2-octyloxirane] here?
Its flash point is 78.00 °C.

With OCCOc1ccccc1 [2-phenoxyethanol] as the molecule, how does the flash point read?
Its flash point is 121.00 °C.

For N#CCc1ccccc1 [2-phenylacetonitrile], which flash point is on record?
Its flash point is 102.00 °C.

With OCCc1ccccc1 [2-phenylethanol] as the molecule, how does the flash point read?
Its flash point is 96.00 °C.

With OCCOCc1ccccc1 [2-phenylmethoxyethanol] as the molecule, how does the flash point read?
Its flash point is 129.00 °C.

For c1ccc(C2CO2)cc1 (stereo not drawn) [2-phenyloxirane], which flash point is on record?
The flash point was 79.00 °C.

Which flash point does the source give for NCCN1CCNCC1 [2-piperazin-1-ylethanamine] here?
Its flash point is 93.00 °C.

Which flash point does the source give for CC(C)c1ccc2ccccc2c1 [2-propan-2-ylnaphthalene] here?
Its flash point is 122.00 °C.

With O=C(O)CS [2-sulfanylacetic acid] as the molecule, how does the flash point read?
The flash point was 113.00 °C.

For COc1ccc(O)c(C(C)(C)C)c1.COc1ccc(O)cc1C(C)(C)C [2-tert-butyl-4-methoxyphenol;3-tert-butyl-4-methoxyphenol], which flash point is on record?
Its flash point is 113.00 °C.

For COc1ccc(O)c(C(C)(C)C)c1 [2-tert-butyl-4-methoxyphenol], which flash point is on record?
The flash point was 156.00 °C.

For CC(C)(C)OOC(C)(C)C [2-tert-butylperoxy-2-methylpropane], which flash point is on record?
The flash point was 18.00 °C.

For CC(C)(C)c1ccccc1O [2-tert-butylphenol], which flash point is on record?
The flash point was 110.00 °C.

Which flash point does the source give for c1ccc2n[nH]nc2c1 [2H-benzotriazole] here?
Its flash point is 170.00 °C.

Which flash point does the source give for C=CC(F)(F)C(F)(F)C(F)(F)C(F)(F)F [3,3,4,4,5,5,6,6,6-nonafluorohex-1-ene] here?
Its flash point is -17.00 °C.

Which flash point does the source give for CC1CC(O)CC(C)(C)C1 (stereo not drawn) [3,3,5-trimethylcyclohexan-1-ol] here?
Its flash point is 74.00 °C.

With O=CC1CCC=CO1 (stereo not drawn) [3,4-dihydro-2H-pyran-2-carbaldehyde] as the molecule, how does the flash point read?
The flash point was 48.00 °C.

Which flash point does the source give for C1=COCCC1 [3,4-dihydro-2H-pyran] here?
The flash point was -18.00 °C.

For Cc1ccc(N)cc1C [3,4-dimethylaniline], which flash point is on record?
Its flash point is 98.00 °C.

For CC(CCO)CC(C)(C)C (stereo not drawn) [3,5,5-trimethylhexan-1-ol], which flash point is on record?
The flash point was 93.00 °C.

Which flash point does the source give for CN1CSC(=S)N(C)C1 [3,5-dimethyl-1,3,5-thiadiazinane-2-thione] here?
Its flash point is 93.00 °C.

With Cc1cc(C)cc(N)c1 [3,5-dimethylaniline] as the molecule, how does the flash point read?
Its flash point is 93.00 °C.

Which flash point does the source give for C=CC(C)(O)CCC=C(C)C (stereo not drawn) [3,7-dimethylocta-1,6-dien-3-ol] here?
Its flash point is 78.00 °C.

Which flash point does the source give for CC(C)=CCCC(C)=CC=O [3,7-dimethylocta-2,6-dienal] here?
The flash point was 102.00 °C.

For CN1CCCC1c1cccnc1 (stereo not drawn) [3-(1-methylpyrrolidin-2-yl)pyridine], which flash point is on record?
Its flash point is 101.00 °C.

For CC1CCCCN1CCCOC(=O)c1ccc(Cl)c(Cl)c1 (stereo not drawn) [3-(2-methylpiperidin-1-yl)propyl 3,4-dichlorobenzoate], which flash point is on record?
Its flash point is 71.00 °C.

Which flash point does the source give for CCCCCCCCC/C=C/CC1CC(=O)OC1=O (stereo not drawn) [3-[(E)-dodec-2-enyl]oxolane-2,5-dione] here?
The flash point was 178.00 °C.

Which flash point does the source give for O=C(O)CCP(CCC(=O)O)CCC(=O)O [3-[bis(2-carboxyethyl)phosphanyl]propanoic acid] here?
The flash point was 202.00 °C.

For CC(=O)C1C(=O)C=C(C)OC1=O (stereo not drawn) [3-acetyl-6-methylpyran-2,4-dione], which flash point is on record?
The flash point was 69.00 °C.

For Oc1cccc(Br)c1 [3-bromophenol], which flash point is on record?
The flash point was 110.00 °C.

With OCCCBr [3-bromopropan-1-ol] as the molecule, how does the flash point read?
Its flash point is 94.00 °C.

For C=C(C)CCl [3-chloro-2-methylprop-1-ene], which flash point is on record?
The flash point was -13.00 °C.

With OCCCCl [3-chloropropan-1-ol] as the molecule, how does the flash point read?
The flash point was 73.00 °C.

Which flash point does the source give for OCC(O)CCl (stereo not drawn) [3-chloropropane-1,2-diol] here?
The flash point was 59.00 °C.

Which flash point does the source give for CCOc1cc(C=O)ccc1O [3-ethoxy-4-hydroxybenzaldehyde] here?
The flash point was 145.00 °C.

With COC(C)CCOC(C)=O (stereo not drawn) [3-methoxybutyl acetate] as the molecule, how does the flash point read?
The flash point was 77.00 °C.

With Cc1cccc(C#N)c1 [3-methylbenzonitrile] as the molecule, how does the flash point read?
Its flash point is 87.00 °C.

For CC(C)=CCO [3-methylbut-2-en-1-ol], which flash point is on record?
Its flash point is 50.00 °C.

Which flash point does the source give for CC(C)=CC=O [3-methylbut-2-enal] here?
The flash point was 37.00 °C.

Which flash point does the source give for CC(C)C(C)O (stereo not drawn) [3-methylbutan-2-ol] here?
Its flash point is 33.00 °C.

With CC(=O)C(C)C [3-methylbutan-2-one] as the molecule, how does the flash point read?
The flash point was 6.00 °C.

With CC(C)CC=O [3-methylbutanal] as the molecule, how does the flash point read?
The flash point was 13.00 °C.

Which flash point does the source give for CC(=O)OCCC(C)C [3-methylbutyl acetate] here?
Its flash point is 25.00 °C.

For CC1CCCC(O)C1 (stereo not drawn) [3-methylcyclohexan-1-ol], which flash point is on record?
The flash point was 62.00 °C.

For Cc1cccc(O)c1 [3-methylphenol], which flash point is on record?
The flash point was 86.00 °C.

For Cc1cccnc1 [3-methylpyridine], which flash point is on record?
The flash point was 36.00 °C.

With OCC=Cc1ccccc1 [3-phenylprop-2-en-1-ol] as the molecule, how does the flash point read?
Its flash point is 126.00 °C.

Which flash point does the source give for O=CC=Cc1ccccc1 [3-phenylprop-2-enal] here?
Its flash point is 120.00 °C.

Which flash point does the source give for C=CCOCC=C [3-prop-2-enoxyprop-1-ene] here?
The flash point was -7.00 °C.

For CCCOCCCO [3-propoxypropan-1-ol], which flash point is on record?
Its flash point is 53.00 °C.

With CCO[Si](CCCN)(OCC)OCC [3-triethoxysilylpropan-1-amine] as the molecule, how does the flash point read?
Its flash point is 98.00 °C.

For C=C(C)C(=O)OCCC[Si](OC)(OC)OC [3-trimethoxysilylpropyl 2-methylprop-2-enoate], which flash point is on record?
Its flash point is 92.00 °C.

With O=C1OC(=O)C2CCCCC12 (stereo not drawn) [3a,4,5,6,7,7a-hexahydro-2-benzofuran-1,3-dione] as the molecule, how does the flash point read?
Its flash point is 149.00 °C.

For CC1(C)COCN1 [4,4-dimethyl-1,3-oxazolidine], which flash point is on record?
Its flash point is 49.00 °C.

With COc1cc(-c2ccc(N)c(OC)c2)ccc1N [4-(4-amino-3-methoxyphenyl)-2-methoxyaniline] as the molecule, how does the flash point read?
Its flash point is 206.00 °C.

For Nc1ccc(Oc2ccc(N)cc2)cc1 [4-(4-aminophenoxy)aniline], which flash point is on record?
Its flash point is 219.00 °C.

Which flash point does the source give for Nc1ccc(Cc2ccc(N)cc2)cc1 [4-[(4-aminophenyl)methyl]aniline] here?
Its flash point is 221.00 °C.

For Nc1ccc(O)cc1 [4-aminophenol], which flash point is on record?
The flash point was 195.00 °C.

Which flash point does the source give for O=Cc1ccc(Cl)cc1 [4-chlorobenzaldehyde] here?
Its flash point is 88.00 °C.

Which flash point does the source give for O=C(Nc1cccc(Cl)c1)OCC#CCCl [4-chlorobut-2-ynyl N-(3-chlorophenyl)carbamate] here?
The flash point was 50.00 °C.

For Oc1ccc(Cl)cc1 [4-chlorophenol], which flash point is on record?
The flash point was 121.00 °C.

For COP(=S)(OC)Oc1ccc(C#N)cc1 [4-dimethoxyphosphinothioyloxybenzonitrile], which flash point is on record?
The flash point was 104.00 °C.

With CCOc1ccc(N)cc1 [4-ethoxyaniline] as the molecule, how does the flash point read?
Its flash point is 116.00 °C.

For CCc1ccc(O)cc1 [4-ethylphenol], which flash point is on record?
Its flash point is 104.00 °C.

With Nc1ccc(F)cc1 [4-fluoroaniline] as the molecule, how does the flash point read?
Its flash point is 74.00 °C.

Which flash point does the source give for CC(=O)CC(C)(C)O [4-hydroxy-4-methylpentan-2-one] here?
Its flash point is 52.00 °C.

For COC(C)(C)CC(C)=O [4-methoxy-4-methylpentan-2-one], which flash point is on record?
Its flash point is 61.00 °C.
